Assay results: patent US20250205173A1, “DERMAL AND TRANSDERMAL ADMINISTRATION OF TREPROSTINIL AND SALTS THEREOF” (CORSAIR PHARMA, INC., priority 2019, published 2025)

Assays:
[1] = In vitro skin permeability assay, vertical Franz diffusion cell; format: in vitro ADME; settings: human epidermis from different donors, 32° C., N=4 per donor
Protocol: A skin permeability assay was performed using a vertical Franz diffusion cell having a diffusion area of 0.64 cm^2 and a volume of 7.5 mL. The assay was conducted at 32° C. with continuous stirring. Heat-separated human cadaver epidermis was used in the assay, the epidermis being stored at −20° C. after the heat-stripping procedure. The human epidermis was thawed prior to being mounted on the diffusion cell. Treprostinil was applied on the skin, and the diffusion cell was closed by screw-cap. At various time intervals, whole medium or receptor medium was replaced by fresh medium. Part of the collected medium was used to calculate the cumulative skin permeability of treprostinil at 72 hours. The skin permeability of treprostinil was evaluated using human epidermis from different donors. N=4 replicates were performed for treprostinil tested on human epidermis from a particular donor.

[2] = Skin irritation study of treprostinil reservoir-type transdermal patch, Draize scale; format: in vivo, Göttingen Minipigs; set-up: key to Edema score: 0: No edema; 1: Very slight edema (barely perceptible); 2: Slight edema (edges of area well defined by definite raising); 3: Moderate edema (raised about 1 mm); 4: Severe edema (raised >1 mm and extending beyond area of exposure); key to Erythema score: 0: No erythema; 1: Very slight erythema (barely perceptible); 2: Well-defined erythema; 3: Moderate to severe erythema; 4: Severe erythema (beet redness) to slight eschar formation (injuries in depth); settings: for Edema score / Erythema score: 10 mg patch
Protocol: The pig is frequently used in studies involving dermal or transdermal administration of a drug because the skin of the pig is very similar to human skin. Skin irritation following transdermal administration of treprostinil from a reservoir-type transdermal patch was assessed in Göttingen Minipigs® (Marshall BioResources, North Rose, New York). The treprostinil-containing reservoir transdermal patch was a 32 cm^2 circular patch with a 6 cm^2 gel-sealed area and a 26 cm^2 peripheral skin-adhesive area. The placebo reservoir transdermal patch was a 39 cm^2 oval patch with a 12 cm^2 gel-sealed area and a 27 cm^2 peripheral skin-adhesive area. The reservoir of the patches comprised a gel composed of hydroxypropyl cellulose and containing ethanol, isopropyl myristate and 10 mg treprostinil or no active agent for the placebo patch. The reservoir was packaged by heat seal between a backing layer composed of metalized polyester/ethylene-vinyl acetate and a semi-permeable microporous membrane composed of polyethylene. A transparent release liner that protected the gel reservoir area and the peripheral adhesive area was peeled off immediately prior to patch application. The patches had the structure of the patch depicted in FIG. 1. To facilitate patch application (dosing) and to ensure animal safety during the dosing procedure, the minipigs were sedated with the anesthetic Telazol, if necessary, via intramuscular injection at an initial dose of 3-6 mg/kg. Any use of Telazol is indicated in the study data. Both the treprostinil-containing and placebo transdermal patches were applied to the dorsal surface of each of three female Göttingen Minipigs® weighing about 15-25 kg and were left in place for 24 hr. The dosing sites (the entire flank on both sides of the dorsal midline, caudal to the scapula) were carefully clipped with an electric clipper on the day prior to application of the patches and then were carefully washed with room temperature (RT) saline to remove dirt and debris. The prepared area was large enough to accommodate several patches. The dosing sites then were carefully shaved smooth with a razor while not causing any nick or cut. RT saline, but no shaving cream, could be used to assist shaving. The dosing sites were then wrapped with bandaging that was secured with a non-irritating, semi-occlusive tape (e.g., Elastikon tape). The minipigs were then fitted with a jacket. On the day of application of the patches, the jacket and wrapping were removed from the minipigs. The dosing sites were visually inspected to confirm the absence of any abrasion or obvious dermal pathology, and were gently cleaned with an isopropanol wipe and were then allowed to air-dry for at least 5 min. The patches were applied to areas of the skin without any abrasion or obvious dermal pathology by applying firm finger pressure to the peripheral adhesive area of the patches to ensure firm adherence of the peripheral area to the skin. To prevent detachment of the patches, TegadermTM dressing (or an equivalent transparent adhesive dressing, such as PatchProtectTM dressing) was applied over the patches, extending at least 2 inches beyond the edges of the patches and adhering to the peripheral area of the patches and to the skin surrounding the patches. The sites of patch application were wrapped with gauze or […] bandaging (or equivalent) that was secured with a non-irritating, semi-occlusive tape (e.g., Elastikon tape). The minipigs were then fitted with a jacket to prevent patch disturbance. The patches were kept in place at the dosing sites for 24 hr. […] Photographs of the sites of patch application were taken just prior to patch removal, following patch removal, and at 2 (±15 min), 24 (±1 hr), 48, 72, 96, 120, 144 and 168 hours after patch removal. The following scores are based on the Draize scale for scoring skin irritation [J. Draize et al., J. Pharmacol. Exp. Ther., 82:377-390 (1944)]. [table] [table]

[3] = Pharmacokinetics of transdermally delivered treprostinil from reservoir-type patch; settings: Göttingen, minipig, in vivo, four patches, total 160 mg treprostinil, in place 72 hr, two male minipigs
Text: Pharmacokinetics (PK) following transdermal administration of treprostinil from a reservoir-type transdermal patch was studied in Göttingen Minipigs® (Marshall BioResources). The treprostinil-containing reservoir transdermal patch was a 39 cm^2 oval patch with a 12 cm^2 gel-sealed area and a 27 cm^2 peripheral skin-adhesive area. […] Naïve male Göttingen Minipigs® about 6 months of age at receipt and weighing about 23 kg at patch application were used in the PK study. To facilitate application of the transdermal patch, the minipigs were sedated with Telazol at 3 mg/kg via intramuscular injection. Prior to patch application the dosing sites on the minipigs were prepared similarly as described in Example 2, and patch application was performed similarly as described in Example 2 except that bandaging was reapplied to the sites of patch application once a day. Four transdermal patches containing a total of 160 mg treprostinil were applied at the same time to the dorsal surface of each of two minipigs and were left in place for 72 hr. Blood samples were collected within 1 hr prior to application of the patches; at 3, 6, 12, 24, 48 and 72 hours after application of the patches; and at 0.167, 0.5, 1, 2, 4 and 6 hours after removal of the patches.

[4] = cited from earlier work
[5] = cited from earlier work; remark: listed apart in the source
[6] = minipig 601, 2 hr post patch removal, 24 hr
[7] = minipig 601, 24 hr post patch removal, 24 hr
[8] = minipig 601, 48 hr post patch removal, 24 hr
[9] = minipig 601, 72 hr post patch removal, 24 hr
[10] = minipig 601, 96 hr post patch removal, 24 hr
[11] = minipig 601, 120 hr post patch removal, 24 hr
[12] = minipig 601, before patch application
[13] = minipig 602, 2 hr post patch removal, 24 hr
[14] = minipig 602, 24 hr post patch removal, 24 hr
[15] = minipig 602, 48 hr post patch removal, 24 hr
[16] = minipig 602, 72 hr post patch removal, 24 hr
[17] = minipig 602, 96 hr post patch removal, 24 hr
[18] = minipig 602, 120 hr post patch removal, 24 hr
[19] = minipig 602, before patch application
[20] = minipig 603, 2 hr post patch removal, 24 hr
[21] = minipig 603, 24 hr post patch removal, 24 hr
[22] = minipig 603, 48 hr post patch removal, 24 hr
[23] = minipig 603, 72 hr post patch removal, 24 hr
[24] = minipig 603, 96 hr post patch removal, 24 hr
[25] = minipig 603, 120 hr post patch removal, 24 hr
[26] = minipig 603, before patch application

For `CCCCC[C@H](O)CC[C@@H]1[C@H]2Cc3cccc(OCC(=O)O)c3C[C@H]2C[C@H]1O` [Treprostinil], which “cumulative skin permeability at 72 hours” value [1] is on record?
The value was “high”.

What about the Edema score [2, 6] of the same compound?
The Edema score was 0.

And the Erythema score [2, 6]?
Its Erythema score is 1.

What about the Edema score [2, 7] of the same compound?
Its Edema score is 0.

What about the Erythema score [2, 7] of the same compound?
The Erythema score was 1.

And the Edema score [2, 8]?
Its Edema score is 0.

And the Erythema score [2, 8]?
Its Erythema score is 1.

And the Edema score [2, 9]?
Its Edema score is 0.

And the Erythema score [2, 9]?
Its Erythema score is 0.

And the Edema score [2, 10]?
Its Edema score is 0.

What about the Erythema score [2, 10] of the same compound?
Its Erythema score is 0.

And the Edema score [2, 11]?
The Edema score was 0.

And the Erythema score [2, 11]?
The Erythema score was 0.

And the Edema score [2, 12]?
Its Edema score is 0.

What about the Erythema score [2, 12] of the same compound?
Its Erythema score is 0.

What about the Edema score [2, 13] of the same compound?
Its Edema score is 0.

And the Erythema score [2, 13]?
Its Erythema score is 1.

And the Edema score [2, 14]?
The Edema score was 0.

What about the Erythema score [2, 14] of the same compound?
Its Erythema score is 1.

What about the Edema score [2, 15] of the same compound?
Its Edema score is 0.

And the Erythema score [2, 15]?
The Erythema score was 0.

And the Edema score [2, 16]?
Its Edema score is 0.

And the Erythema score [2, 16]?
The Erythema score was 0.

And the Edema score [2, 17]?
Its Edema score is 0.

What about the Erythema score [2, 17] of the same compound?
Its Erythema score is 0.

What about the Edema score [2, 18] of the same compound?
Its Edema score is 0.

And the Erythema score [2, 18]?
Its Erythema score is 0.

And the Edema score [2, 19]?
Its Edema score is 0.

And the Erythema score [2, 19]?
The Erythema score was 0.

And the Edema score [2, 20]?
Its Edema score is 0.

And the Erythema score [2, 20]?
Its Erythema score is 2.

And the Edema score [2, 21]?
Its Edema score is 0.

And the Erythema score [2, 21]?
The Erythema score was 2.

What about the Edema score [2, 22] of the same compound?
The Edema score was 0.

And the Erythema score [2, 22]?
Its Erythema score is 0.

What about the Edema score [2, 23] of the same compound?
The Edema score was 0.

And the Erythema score [2, 23]?
Its Erythema score is 0.

And the Edema score [2, 24]?
The Edema score was 0.

What about the Erythema score [2, 24] of the same compound?
Its Erythema score is 0.

And the Edema score [2, 25]?
The Edema score was 0.

And the Erythema score [2, 25]?
Its Erythema score is 0.

What about the Edema score [2, 26] of the same compound?
Its Edema score is 0.

And the Erythema score [2, 26]?
The Erythema score was 0.

And the “skin irritation (summary)” value ([2]; reservoir patch 10 mg treprostinil with isopropyl myristate and ethanol, in place 24 hr, three female minipigs)?
The value was “did not cause significant skin irritation”.

And the concentration at 72 hr ([3]; other: transdermal (reservoir-type patch), read-out: C72 hr)?
Its concentration at 72 hr is 2.4 to 4.9 ng/mL.

And the Cmax ([3]; topical or ocular)?
Its Cmax is 20.8 to 27.6 ng/mL.

And the Tmax ([3]; topical or ocular)?
Its Tmax is 6 h.

What about the AUC(0-t) ([3]; topical or ocular, read-out: AUC0-72) of the same compound?
Its AUC(0-t) is 429 to 946 ng·h/mL.

And the half-life ([3]; topical or ocular, read-out: half-life (T1/2) during treatment)?
Its half-life is 28 to 35 h.

What about the systemic half-life ([4]; free acid, due to significant metabolism) of the same compound?
Its systemic half-life is “very short”.

What about the absolute oral bioavailability ([4]; treprostinil as the free acid, oral) of the same compound?
The absolute oral bioavailability was “less than 10%”.

What about the “peak-to-trough ratio of plasma concentrations” value ([5]; administered by inhalation) of the same compound?
The value was “large”.

What about the “PAH patients who cannot take inhaled treprostinil due to irritation to the lungs” value ([5]; inhalation) of the same compound?
The value was “about 50%”.
